PMC11451537, “P2X7 receptors exhibit at least three modes of allosteric antagonism” (Science Advances, 2024)

Tests used:
Format in all cases: cell-based
hP2X2 = target: T1, hP2X2 (Homo sapiens, UniProt Q9UBL9); test: TEVC inhibition dose-response (IC50), hP2X2 in Xenopus laevis oocytes; conditions: 10 μM ATP, mean ± SD, triplicate
T1 construct: The hP2X1-WT, hP2X2-WT, hP2X3-WT, hP2X4-WT, and hP2X7-WT constructs used for electrophysiology are similarly unmodified full-length, wild-type receptor constructs; expressed in transfected cells; host or cells: Xenopus laevis oocytes injected with mRNA made from pcDNA3.1x
T1 sequence (Q9UBL9 1-471): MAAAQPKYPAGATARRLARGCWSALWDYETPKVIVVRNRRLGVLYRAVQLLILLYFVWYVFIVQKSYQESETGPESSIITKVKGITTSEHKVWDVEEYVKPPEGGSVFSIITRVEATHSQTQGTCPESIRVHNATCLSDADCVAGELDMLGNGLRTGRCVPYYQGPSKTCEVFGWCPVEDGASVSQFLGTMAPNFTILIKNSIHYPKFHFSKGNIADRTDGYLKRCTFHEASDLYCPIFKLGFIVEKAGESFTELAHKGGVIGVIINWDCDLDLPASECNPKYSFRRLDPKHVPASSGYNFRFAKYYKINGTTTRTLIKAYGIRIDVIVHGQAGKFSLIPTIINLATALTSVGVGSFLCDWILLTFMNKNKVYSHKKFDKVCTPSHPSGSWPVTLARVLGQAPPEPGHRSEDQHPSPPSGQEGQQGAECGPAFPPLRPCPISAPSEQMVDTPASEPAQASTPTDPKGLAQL
Source text: (§1) To evaluate the inhibitory response of an antagonist for a dilution series, an initial excitatory signal was evoked at a subtype-specific concentration of ATP. Next, the antagonist was applied at a test concentration for 60 s and then coapplied at the same test concentration of the antagonist with the identical subtype-specific concentration of ATP. The antagonized signal was then normalized against the preceding excitatory signal evoked by ATP for each individual oocyte tested. The pre- and post-antagonist signals were evoked by 10 μM ATP for hP2X1, 10 μM ATP for hP2X2, 1 μM ATP for hP2X3, 50 μM ATP for hP2X4, and 100 μM ATP for P2X7. For the K297V mutation in rP2X7, pre- and post-antagonist signals were evoked by 300 μM ATP. Each dataset was then fit to a nonlinear regression named “[inhibitor] vs. response – Variable slope (four parameters)” in GraphPad Prism 9 to produce a sigmoidal curve and afford an IC50 value. Each singular condition was used to generate an average which is reported plus or minus its SD between three discrete trials.

hP2X7 [1] = target: T2, hP2X7 (Homo sapiens, UniProt Q99572); test: TEVC recovery of current after complete inhibition (IC100), hP2X7; design: hP2X7-WT constructs used for electrophysiology are similarly unmodified full-length, wild-type receptor constructs; expressed in transfected cells; host or cells: Xenopus laevis oocytes injected with mRNA made from pcDNA3.1x; conditions: 120 s buffer wash, 100 μM ATP
T2 sequence (Q99572 1-595): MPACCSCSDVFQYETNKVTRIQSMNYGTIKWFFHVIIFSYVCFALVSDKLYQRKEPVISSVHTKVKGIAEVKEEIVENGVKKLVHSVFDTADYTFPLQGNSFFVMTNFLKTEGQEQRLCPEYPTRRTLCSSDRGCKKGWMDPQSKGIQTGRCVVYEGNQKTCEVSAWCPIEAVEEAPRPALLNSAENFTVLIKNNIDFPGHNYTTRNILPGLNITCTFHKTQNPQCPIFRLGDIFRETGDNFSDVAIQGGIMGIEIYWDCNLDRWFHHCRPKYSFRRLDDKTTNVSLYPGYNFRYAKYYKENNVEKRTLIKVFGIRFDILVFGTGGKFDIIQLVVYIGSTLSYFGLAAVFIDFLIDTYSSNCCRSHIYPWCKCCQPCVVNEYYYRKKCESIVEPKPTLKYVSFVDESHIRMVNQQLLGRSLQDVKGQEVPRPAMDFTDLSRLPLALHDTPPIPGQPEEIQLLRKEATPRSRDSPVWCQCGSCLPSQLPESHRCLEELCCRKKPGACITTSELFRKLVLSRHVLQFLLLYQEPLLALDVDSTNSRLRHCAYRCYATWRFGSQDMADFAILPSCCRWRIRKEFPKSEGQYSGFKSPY
Source text: Experiments were run in triplicate.

hP2X3 = target: T3, hP2X3 (Homo sapiens, UniProt P56373); test: TEVC inhibition dose-response (IC50), hP2X3 in Xenopus laevis oocytes; conditions: 1 μM ATP, mean ± SD, triplicate
T3 construct: The hP2X1-WT, hP2X2-WT, hP2X3-WT, hP2X4-WT, and hP2X7-WT constructs used for electrophysiology are similarly unmodified full-length, wild-type receptor constructs; expressed in transfected cells; host or cells: Xenopus laevis oocytes injected with mRNA made from pcDNA3.1x
T3 sequence (P56373 1-397): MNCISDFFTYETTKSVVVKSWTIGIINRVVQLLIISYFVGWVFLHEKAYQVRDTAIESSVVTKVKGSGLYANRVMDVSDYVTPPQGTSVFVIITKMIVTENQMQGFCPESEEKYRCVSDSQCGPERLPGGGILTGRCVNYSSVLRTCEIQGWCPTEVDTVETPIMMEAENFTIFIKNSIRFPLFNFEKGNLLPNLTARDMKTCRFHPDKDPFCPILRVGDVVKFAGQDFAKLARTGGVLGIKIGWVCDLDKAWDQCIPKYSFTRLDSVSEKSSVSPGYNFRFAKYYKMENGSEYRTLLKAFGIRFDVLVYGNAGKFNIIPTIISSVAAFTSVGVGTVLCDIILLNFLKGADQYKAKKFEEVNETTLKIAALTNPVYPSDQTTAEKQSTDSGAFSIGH
Source text: as §1

hP2X7 [2] = target: T2, hP2X7; test: TEVC inhibition dose-response (IC50), hP2X7 in Xenopus laevis oocytes; design: hP2X4-WT, and hP2X7-WT constructs used for electrophysiology are similarly unmodified full-length, wild-type receptor constructs; expressed in transfected cells; host or cells: Xenopus laevis oocytes injected with mRNA made from pcDNA3.1x; conditions: 100 μM ATP, mean ± SD, triplicate
Source text: as §1

O=S(=O)(O)c1ccc(N=C2C=CC(=C(c3ccc(Nc4ccc(S(=O)(=O)O)cc4)cc3)c3ccc(Nc4ccc(S(=O)(=O)O)cc4)cc3)C=C2)cc1 [methyl blue]
IC50 (hP2X2): 13 ± 2 µM | Recovery of activation (% of baseline current) (hP2X7 [1]; hP2X7, 40-s IC100 application): 34 ± 3% | Recovery of activation (% of baseline current) (hP2X7 [1]; hP2X7, 120-s IC100 application): 17 ± 6% | Recovery of activation (% of baseline current) (hP2X7 [1]; hP2X7, 240-s IC100 application): 2 ± 1% | IC50 (hP2X3): 4 ± 1 µM | IC50 (hP2X7 [2]): 4 ± 2 µM
